The record followed here is ChEMBL document CHEMBL4396891, “Recent update on anti-dengue drug discovery” (Eur J Med Chem, 2019).

The test system of assay [1] is dengue virus type 2. Put plainly: Antiviral activity against DENV2 infected in BHK-21 incubated for 2 hrs followed by compound washout and subsequent replating by plaque-forming assay. It is filed as functional, organism-based. The conditions noted are these: BHK-21, 2 h.
The target in assay [2] is T1, Genome polyprotein (dengue virus type 2, UniProt P29990). Put plainly: Inhibition of His-tagged DENV2 NS2B-NS3 serine protease expressed in baculovirus infected sf9 cells.
In assay [3] the target is T1, Genome polyprotein. Briefly: Inhibition of DENV2 NS2B-NS3 serine protease using Boc-GRR-AMC as substrate after 30 mins.
In assay [4] the target is T1, Genome polyprotein. Briefly: Inhibition of His-tagged DENV2 NS2B-NS3 serine protease.
For assay [5], the system named is dengue virus type 2. Put plainly: Antiviral activity against DENV2 infected in human Huh-7 cells assessed as reduction in viral infection. It is filed as functional, organism-based.
Assay [6] addresses T1, Genome polyprotein. Put plainly: Inhibition of DENV2 NS2B-NS3 serine protease expressed in human Huh7 cells after 3 days by Phospha-Light SEAP reporter gene Assay. It is filed as cell-based. A general note: A reporter such as luciferase makes a cellular process visible.
For assay [7], the system named is dengue virus type 2. Briefly: Antiviral activity against DENV2 16681 infected in human Huh7 cells after 3 days by RT-qPCR analysis. It is filed as functional, organism-based. The settings on record: Dengue virus, 16681, Huh-7, 72 h. On the technique in general: Real-time PCR tracks product formation cycle by cycle.
Assay [8] relates to dengue virus type 2. Briefly: Antiviral activity against DENV2 infected in human Huh-7 cells. It is filed as functional, organism-based.
In assay [9] the test system is dengue virus type 2. Briefly: Antiviral activity against DENV2 16681 infected in human Huh7 cells by luciferase reporter gene assay. It is filed as functional, organism-based. The conditions noted are these: Dengue virus, 16681, Huh-7.
Assay [10] deals with dengue virus type 2. Put plainly: Antiviral activity against DENV2 infected in BHK-21 assessed as reduction in viral plaque formation by crystal violet staining based assay. It is filed as functional, organism-based.
A further assay relates to Dengue virus. Briefly: Antiviral activity against Dengue virus infected in human HepG2 cells assessed as viral production at 150 uM after 1 hrs by flow cytometry analysis relative to control. It is filed as functional. In general terms: Flow cytometry measures light scatter and fluorescence of single cells or particles in a stream.
For assay [11], the system named is dengue virus type 1. Briefly: Antiviral activity against DENV1 infected in human Huh7 cells assessed as reduction in viral yield after 48 hrs by MTT assay. The settings on record: Huh-7, 48 h, pooled result: one value given for 4 cell lines, strains, targets or settings. It is filed as functional, organism-based.
Another assay has as its system A549. Put plainly: Cytotoxicity against human A549 cells assessed as cell survival at 200 uM after 24 hrs by MTT assay relative to control. It is filed as functional. The settings on record: A549, 24 h, read-out: Activity.
Assay [12] relates to dengue virus type 2. Put plainly: Antiviral activity against DENV2 infected in African green monkey Vero cells assessed as reduction in virus titer after 72 hrs by naphthol blue-black dye based assay. It is filed as functional, organism-based.
Assay [13] concerns dengue virus type 2. Put plainly: Antiviral activity against DENV2 […] infected in African green monkey Vero cells by qRT-PCR analysis. It is filed as functional, organism-based.
In assay [14] the test system is dengue virus type 2. Put plainly: Antiviral activity against DENV2 New Guinea C/PUO-218 by qRT-PCR analysis. It is filed as functional, organism-based.
Assay [15] relates to dengue virus type 2. Put plainly: Antiviral activity against DENV2 infected in human Huh7 cells assessed as reduction in virus yield by qRT-PCR analysis. It is filed as functional, organism-based. The conditions noted are these: Huh-7.
The test system of assay [16] is dengue virus type 2. Put plainly: Antiviral activity against DENV2 infected in human Huh7 cells up to 72 hrs by immunofluorescence analysis. It is filed as functional, organism-based. The conditions noted are these: Huh-7, 72 h.
The target in another assay is Nonstructural protein 5 (Dengue virus, UniProt V5TFZ2). Briefly: Inhibition of recombinant N-terminal His6-tagged DENV2 NGC NS5 RNA dependent RNA polymerase. Further details: species or system dengue virus type 2.
In another assay the test system is dengue virus type 4. Briefly: Antiviral activity against DENV4 infected in BHK cells assessed as reduction in viral replication. It is filed as functional, organism-based.
For assay [17], the system named is dengue virus type 1. Put plainly: Antiviral activity against DENV1 infected in BHK cells assessed as reduction in viral replication. It is filed as functional, organism-based.
Assay [18] deals with dengue virus type 2. Briefly: Antiviral activity against DENV2 infected in BHK cells assessed as reduction in viral replication. It is filed as functional, organism-based.
The next assay relates to dengue virus type 3. Put plainly: Antiviral activity against DENV3 infected in BHK cells assessed as reduction in viral replication. It is filed as functional, organism-based.

Molecules are shown by their SMILES.

Sequence of Nonstructural protein 5 (V5TFZ2 whole entry): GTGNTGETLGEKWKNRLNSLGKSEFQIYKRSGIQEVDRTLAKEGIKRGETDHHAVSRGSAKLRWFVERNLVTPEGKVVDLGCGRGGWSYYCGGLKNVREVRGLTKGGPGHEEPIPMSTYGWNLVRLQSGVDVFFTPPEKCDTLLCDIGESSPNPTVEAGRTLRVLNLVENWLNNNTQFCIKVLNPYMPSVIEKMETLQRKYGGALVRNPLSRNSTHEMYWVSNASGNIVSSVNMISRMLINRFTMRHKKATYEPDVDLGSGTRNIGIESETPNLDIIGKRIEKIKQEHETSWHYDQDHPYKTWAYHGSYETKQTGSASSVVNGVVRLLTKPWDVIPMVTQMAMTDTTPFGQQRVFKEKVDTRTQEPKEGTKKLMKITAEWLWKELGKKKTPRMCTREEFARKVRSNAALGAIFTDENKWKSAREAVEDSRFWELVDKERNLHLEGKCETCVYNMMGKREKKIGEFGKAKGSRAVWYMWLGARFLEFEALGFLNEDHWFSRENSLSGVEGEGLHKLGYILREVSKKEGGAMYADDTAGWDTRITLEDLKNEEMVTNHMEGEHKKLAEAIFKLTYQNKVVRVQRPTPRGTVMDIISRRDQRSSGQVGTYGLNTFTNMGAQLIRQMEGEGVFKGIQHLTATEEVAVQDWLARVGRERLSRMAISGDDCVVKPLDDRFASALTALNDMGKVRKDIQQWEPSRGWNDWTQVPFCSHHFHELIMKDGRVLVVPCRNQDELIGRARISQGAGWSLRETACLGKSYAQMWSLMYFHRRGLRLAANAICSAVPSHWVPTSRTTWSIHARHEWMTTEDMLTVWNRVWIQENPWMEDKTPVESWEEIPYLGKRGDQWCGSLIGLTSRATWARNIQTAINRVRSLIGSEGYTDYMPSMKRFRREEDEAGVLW

The term IC50 denotes the midpoint of a concentration-inhibition curve. As for `CCN(CCO)CCCC(C)Nc1ccnc2cc(Cl)ccc12` (stereo not drawn) [HYDROXYCHLOROQUINE], the IC50 with dengue virus type 2 [1] amounted to 10.1 µM.

As a reminder, the EC50 is the midpoint of the concentration-response curve. As for `COC(=O)c1[nH]c2ccc(Cl)cc2c1C(=O)c1cc(OC)c(O)c(OC)c1`, the IC50 against Genome polyprotein [2] came to 6.7 µM; against Genome polyprotein [3] it was 4.7 µM; against Genome polyprotein [4], 4.7 µM; at Genome polyprotein [6] it was 6.7 µM. Moreover, the EC50 in the assay with dengue virus type 2 [5] and in the assay on dengue virus type 2 [7] was 4.6 µM each time. For the compound `C/C(=C\[C@H](C)C(=O)C[C@H](O)CC1CC(=O)NC(=O)C1)[C@@H]1OC(=O)/C=C/CC/C=C/C=C\[C@@H]1C` [LACTIMIDOMYCIN], the half-maximal effective concentration (EC50) in the assay on dengue virus type 2 [8] and with dengue virus type 2 [9] was 0.4 µM in each case. For `O=C(Nc1ccc([N+](=O)[O-])cc1Cl)c1cc(Cl)ccc1O` [NICLOSAMIDE], the IC50 with dengue virus type 2 [10] was found to be 10 µM.

As to `C=C[C@H]1CN2CC[C@H]1C[C@H]2[C@H](O)c1ccnc2ccc(OC)cc12` [QUININE], the Activity in the assay with Dengue virus is recorded as 19%. As for `O=C1[C@H](CC[C@H](O)c2ccc(F)cc2)[C@@H](c2ccc(O)cc2)N1c1ccc(F)cc1` [EZETIMIBE], the IC50 in the assay on dengue virus type 1 [11] was determined as 13.1 µM. As for `CC1(C)[C@@H](OC(=O)CCC(=O)O)CC[C@]2(C)[C@H]3C(=O)C=C4[C@@H]5C[C@@](C)(C(=O)O)CC[C@]5(C)CC[C@@]4(C)[C@]3(C)CC[C@@H]12` [CARBENOXOLONE], the viability at 200 µM in the assay with A549 was determined as 80%. Consider `C[C@H]1c2cccc(O)c2C(=O)C2=C(O)[C@]3(O)C(=O)C(C(N)=O)=C(O)[C@@H](N(C)C)[C@@H]3[C@@H](O)[C@@H]21` [DOXYCYCLINE], for which the IC50 in the assay on dengue virus type 2 [12] was 50 µM.

On to `CC[C@@H]([C@H](C)O)n1ncn(-c2ccc(N3CCN(c4ccc(OC[C@@H]5CO[C@@](Cn6cncn6)(c6ccc(F)cc6F)C5)cc4)CC3)cc2)c1=O` [POSACONAZOLE], for which the EC50 in the assay with dengue virus type 2 [13] is 4.1 µM. On to `CC(C)OC(=O)[C@H](C)N[P@](=O)(OC[C@H]1O[C@@H](n2ccc(=O)[nH]c2=O)[C@](C)(F)[C@@H]1O)Oc1ccccc1` [SOFOSBUVIR], for which the EC50 in the assay with dengue virus type 2 [14] worked out at 0.4 µM; in the assay with dengue virus type 2 [15], 4.9 µM. Take `CC(=O)O[C@H]1C[C@H](O[C@H]2[C@@H](O)C[C@H](O[C@H]3[C@@H](O)C[C@H](O[C@H]4CC[C@@]5(C)[C@H](CC[C@@H]6[C@@H]5C[C@@H](O)[C@]5(C)[C@@H](C7=CC(=O)OC7)CC[C@]65O)C4)O[C@@H]3C)O[C@@H]2C)O[C@H](C)[C@H]1O[C@@H]1O[C@H](CO)[C@@H](O)[C@H](O)[C@H]1O` [LANATOSIDE C]: half-maximal inhibition in the assay with dengue virus type 2 [16] (IC50) was put at 0.19 µM. Consider `O=C(NO)c1ncc(CS(=O)(=O)c2ccccc2)c(CO)c1O`, for which the IC50 on Nonstructural protein 5 is 5 to 6.7 µM; in the assay with dengue virus type 4 it was 2.2 to 2.8 µM. The EC50 with dengue virus type 1 [17], in the assay on dengue virus type 2 [18] and in the assay with dengue virus type 3 was 2.2 to 2.8 µM throughout.
